Measurements as given in patent US12384789B2, “Compounds for treating Huntington's disease” (PTC Therapeutics, Inc., priority 2017, dated 2025).

Tested on: Endogenous Huntingtin Protein
Assay: Endogenous Huntingtin Protein Assay (Meso Scale Discovery ELISA-based electrochemiluminescence)
Type: cell-based
Details: MSD electrochemiluminescence, Table 1
Protocol: Compounds of Formula (I) were tested using the Meso Scale Discovery (MSD) Assay provided in International Application No. PCT/US2016/066042, filed on Dec. 11, 2016 and claiming priority to United States Provisional Application U.S. 62/265,652 filed on Dec. 10, 2015, the entire contents of which are incorporated herein by reference.
The Endogenous Huntingtin Protein assay used in Example 1 was developed using the ELISA-based MSD electrochemiluminescence assay platform.
Endogenous Huntingtin Protein Assay
Meso Scale Discovery (MSD) 96-well or 384-well plates were coated overnight at 4° C. with MW1 (expanded polyglutamine) or MAB2166 monoclonal antibody (for capture) at a concentration of 1 μg/mL in PBS (30 μL per well). Plates were then washed three times with 300 μL wash buffer (0.05% Tween-20 in PBS) and blocked (100 μL blocking buffer; 5% BSA in PBS) for 4-5 hours at room temperature with rotational shaking and then washed three times with wash buffer.
Samples (25 μL) were transferred to the antibody-coated MSD plate and incubated overnight at 4° C. After removal of the lysates, the plate was washed three times with wash buffer, and 25 μL of #5656S (Cell signaling; rabbit monoclonal) secondary antibody (diluted to 0.25 μg/mL in 0.05% Tween-20 in blocking buffer) was added to each well and incubated with shaking for 1 Hour at room temperature. Following incubation with the secondary antibody, the wells were rinsed with wash buffer after which 25 μL of goat anti-rabbit SULFO TAG secondary detection antibody (required aspect of the MSD system) (diluted to 0.25 μg/mL in 0.05% Tween-20 in blocking buffer) was added to each well and incubated with shaking for 1 hour at room temperature. After rinsing three times with wash buffer, 150 μL of read buffer T with surfactant (MSD) were added to each empty well, and the plate was imaged on a SI 6000 imager (MSD) according to manufacturers' instructions provided for 96- or 384-well plates.

IC50 [nM]	Compound
≤ 100	Cc1cn2nc(-c3cc(F)c4cc(C5C[C@@H](C)N(C)[C@H](C)C5)nnc4c3)cc(C)c2n1 (stereo partly drawn) [Compound 124, 7-(2,8-dimethylimidazo[1,2-b]pyridazin-6-yl)-5-fluoro-3-[(25,6S)-1,2,6-trimethylpiperidin-4-yl]cinnoline]
≤ 100	CCN1CCC(c2cc(F)c3cc(-c4cc(F)c5nn(C)cc5c4)nnc3c2)CC1 [Compound 154, 7-(1-ethylpiperidin-4-yl)-5-fluoro-3-(7-fluoro-2-methyl-2H-indazol-5-yl)cinnoline]
≤ 100	Cc1cn2nc(-c3cc(F)c4cc(C5CCNCC5)nnc4c3)cc(Oc3ccccc3)c2n1 [Compound 195, 5-fluoro-7-(2-methyl-8-phenoxyimidazo[1,2-b]pyridazin-6-yl)-3-(piperidin-4-yl)cinnoline]
100 to 500	Cc1cn2nc(-c3cc(F)c4cc(C5C[C@@H](C)N(CCF)[C@@H](C)C5)nnc4c3)cc(C)c2n1 (stereo partly drawn) [Compound 170, 7-(2,8-dimethylimidazo[1,2-b]pyridazin-6-yl)-5-fluoro-3-[(2R,6S)-1-(2-fluoroethyl)-2,6-dimethylpiperidin-4-yl]cinnoline]
≤ 100	Cc1cn2nc(-c3cc(F)c4cc(C5CCNCC5)nnc4c3)cc(OCCCn3cnc4ccccc43)c2n1 [Compound 150, 7-{8-[3-(1H-benzimidazol-1-yl)propoxy]-2-methylimidazo[1,2-b]pyridazin-6-yl}-5-fluoro-3-(piperidin-4-yl)cinnoline]
≤ 100	Cc1cc2sc(-c3cc(F)c4cc(C5CCNCC5)nnc4c3)nc2c(C)n1 [Compound 149, 7-(4,6-dimethyl[1,3]thiazolo[4,5-c]pyridin-2-yl)-5-fluoro-3-(piperidin-4-yl)cinnoline]
≤ 100	CCc1cc(-c2cc(F)c3cc(C4CCNCC4)nnc3c2)nc2cn(C)nc12 [Compound 172, 7-(7-ethyl-2-methyl-2H-pyrazolo[4,3-b]pyridin-5-yl)-5-fluoro-3-(piperidin-4-yl)cinnoline]
≤ 100	Cc1cn2nc(-c3cc(F)c4cc(N5CC6(CCCNC6)C5)nnc4c3)cc(C)c2n1 [Compound 218, 3-(2,6-diazaspiro[3.5]nonan-2-yl)-7-(2,8-dimethylimidazo[1,2-b]pyridazin-6-yl)-5-fluorocinnoline]
1000 to 3000	CCN1CCC(c2cc3c(F)cc(-c4cc(C)c5nc(C)sc5c4)cc3nn2)CC1 [Compound 120, 7-(2,4-dimethyl-1,3-benzothiazol-6-yl)-3-(1-ethylpiperidin-4-yl)-5-fluorocinnoline]
100 to 500	Cc1cn2nc(-c3cc(F)c4cc(C5CCNCC5)nnc4c3)cc(-n3ccnc3)c2n1 [Compound 194, 5-fluoro-7-[8-(1H-imidazol-1-yl)-2-methylimidazo[1,2-b]pyridazin-6-yl]-3-(piperidin-4-yl)cinnoline]
100 to 500	CCN1CCC(c2cc3ccc(-c4cc(C)c5nc(C)cn5n4)cc3nn2)CC1 [Compound 85, 7-(2,8-dimethylimidazo[1,2-b]pyridazin-6-yl)-3-(1-ethylpiperidin-4-yl)cinnoline]
≤ 100	CCc1cc(-c2cc(F)c3cc(C4CCNCC4)nnc3c2)nn2cc(C)nc12 [Compound 105, 7-(8-ethyl-2-methylimidazo[1,2-b]pyridazin-6-yl)-5-fluoro-3-(piperidin-4-yl)cinnoline]
100 to 500	Cc1cn2nc(-c3cc(F)c4cc(N5CCC6(CNC6)C5)nnc4c3)cc(C)c2n1 [Compound 220, 3-(2,6-diazaspiro[3.4]octan-6-yl)-7-(2,8-dimethylimidazo[1,2-b]pyridazin-6-yl)-5-fluorocinnoline]
≤ 100	COc1cc(-c2cc(F)c3cc(C4CCNCC4)nnc3c2)nc2cn(C)nc12 [Compound 163, 5-fluoro-7-(7-methoxy-2-methyl-2H-pyrazolo[4,3-b]pyridin-5-yl)-3-(piperidin-4-yl)cinnoline]
≤ 100	Cc1cn2nc(-c3cc(F)c4cc(C5CCN(CCCN(C)C)CC5)nnc4c3)cc(C)c2n1 [Compound 158, 3-{4-[7-(2,8-dimethylimidazo[1,2-b]pyridazin-6-yl)-5-fluorocinnolin-3-yl]piperidin-1-yl}-N,N-dimethylpropan-1-amine]

More lines, now with the values behind:

Compound	IC50 [nM]
Cn1nc2cc(-c3cc4c(F)cc(C5=CCNCC5)cc4nn3)cc(F)c2n1 [Compound 171, 5-fluoro-3-(7-fluoro-2-methyl-2H-benzotriazol-5-yl)-7-(1,2,3,6-tetrahydropyridin-4-yl)cinnoline]	≤ 100
COc1cc(-c2cc(F)c3nc(C4CCNCC4)ccc3c2)cc2cn(C)nc12 [Compound 49, 8-fluoro-6-(7-methoxy-2-methyl-2H-indazol-5-yl)-2-(piperidin-4-yl)quinoline]	≤ 100
Cc1cn2nc(-c3cc(F)c4cc(C5=CCNCC5)nnc4c3)cc(C)c2n1 [Compound 225, 7-(2,8-dimethylimidazo[1,2-b]pyridazin-6-yl)-5-fluoro-3-(1,2,3,6-tetrahydropyridin-4-yl)cinnoline]	≤ 100
Cn1cc2cc(-c3ccc4cc(C5=CCNCC5)cc(F)c4n3)cc(F)c2n1 [Compound 166, 8-fluoro-2-(7-fluoro-2-methyl-2H-indazol-5-yl)-6-(1,2,3,6-tetrahydropyridin-4-yl)quinoline]	≤ 100
Cc1cc(-c2cc3c(F)cc(C4=CCNCC4)cc3nn2)cc2cn(C)nc12 [Compound 157, 3-(2,7-dimethyl-2H-indazol-5-yl)-5-fluoro-7-(1,2,3,6-tetrahydropyridin-4-yl)cinnoline]	≤ 100
Cn1cc2cc(-c3nnc4cc(C5CCNCC5)ccc4n3)cc(C#N)c2n1 [Compound 26, 2-methyl-5-[7-(piperidin-4-yl)-1,2,4-benzotriazin-3-yl]-2H-indazole-7-carbonitrile]	≤ 100
Cc1cn2nc(-c3cc(F)c4cc(C5CCNCC5)ncc4c3)cc(C)c2n1 [Compound 72, 7-(2,8-dimethylimidazo[1,2-b]pyridazin-6-yl)-5-fluoro-3-(piperidin-4-yl)isoquinoline]	≤ 100
Cc1cn2nc(-c3cc(F)c4cc(C5CCN(C(C)C)CC5)nnc4c3)cc(C)c2n1 [Compound 78, 7-(2,8-dimethylimidazo[1,2-b]pyridazin-6-yl)-5-fluoro-3-[1-(propan-2-yl)piperidin-4-yl]cinnoline]	≤ 100
CCN1CCC(c2nnc3cc(-c4cc(C)c5nc(C)cn5n4)cc(F)c3n2)CC1 [Compound 70, 7-(2,8-dimethylimidazo[1,2-b]pyridazin-6-yl)-3-(1-ethylpiperidin-4-yl)-5-fluoro-1,2,4-benzotriazine]	≤ 100
Cc1cc(-c2cnc3cc(C4CCNCC4)ccc3c2)cc2cn(C)nc12 [Compound 29, 3-(2,7-dimethyl-2H-indazol-5-yl)-7-(piperidin-4-yl)quinoline]	1000 to 3000
Cc1cn2cc(-c3ccc4nc(C5CCNCC5)ccc4c3)nc(C)c2n1 [Compound 18, 6-(2,8-dimethylimidazo[1,2-a]pyrazin-6-yl)-2-(piperidin-4-yl)quinoline]	100 to 500
CCN1CC=C(c2cc(F)c3nc(-c4cc(F)c5nn(C)cc5c4)ccc3c2)CC1 [Compound 184, 6-(1-ethyl-1,2,3,6-tetrahydropyridin-4-yl)-8-fluoro-2-(7-fluoro-2-methyl-2H-indazol-5-yl)quinoline]	≤ 100
COCCNc1cc(-c2cc(F)c3nc(C4CCNCC4)ccc3c2)nn2cc(C)nc12 [Compound 54, 6-[8-fluoro-2-(piperidin-4-yl)quinolin-6-yl]-N-(2-methoxyethyl)-2-methylimidazo[1,2-b]pyridazin-8-amine]	100 to 500
CCN1CC=C(c2cc(F)c3cc(-c4cc(F)c5nn(C)cc5c4)nnc3c2)CC1 [Compound 153, 7-(1-ethyl-1,2,3,6-tetrahydropyridin-4-yl)-5-fluoro-3-(7-fluoro-2-methyl-2H-indazol-5-yl)cinnoline]	≤ 100
Cn1cc2cc(-c3cc4ccc(C5=CCNCC5)cc4nn3)ccc2n1 [Compound 4, 3-(2-methyl-2H-indazol-5-yl)-7-(1,2,3,6-tetrahydropyridin-4-yl)cinnoline]	500 to 1000
Cn1cc2cc(-c3cc4c(F)cc(C5=CCNCC5)cc4nn3)cc(F)c2n1 [Compound 134, 5-fluoro-3-(7-fluoro-2-methyl-2H-indazol-5-yl)-7-(1,2,3,6-tetrahydropyridin-4-yl)cinnoline]	≤ 100
CCOc1cc(-c2cc(F)c3nc(C4CCNCC4)nnc3c2)nn2cc(C)nc12 [Compound 59, 7-(8-ethoxy-2-methylimidazo[1,2-b]pyridazin-6-yl)-5-fluoro-3-(piperidin-4-yl)-1,2,4-benzotriazine]	≤ 100
Cc1cc(-c2cc(F)c3nc(N(C)C4CCNCC4)nnc3c2)cc2cn(C)nc12 [Compound 42, 7-(2,7-dimethyl-2H-indazol-5-yl)-5-fluoro-N-methyl-N-(piperidin-4-yl)-1,2,4-benzotriazin-3-amine]	100 to 500
CN(c1ccc2cc(-c3ccc4nn(C)cc4c3)ccc2n1)C1CC(C)(C)NC(C)(C)C1 [Compound 12, N-methyl-6-(2-methyl-2H-indazol-5-yl)-N-(2,2,6,6-tetramethylpiperidin-4-yl)quinolin-2-amine]	500 to 1000
